Results published in patent US7166435B2 (priority 2001, dated 2007).
Entries after “also recorded” stand apart in the source; their conditions may differ. Read-outs that look alike come from different tables or passages of the source.

Tests used:
influenza virus = type: in vivo, ferret; conditions: for Mean Difference (I−J), Weight Change separated into pens: pairwise comparison
Influenza A/Moscow/10/99 = type: cell-based; conditions: Citrate Buffer control
[1] = test system: Influenza B/Guangdong/120/00; type: cell-based; conditions: Citrate Buffer control
[2] = recipient ferrets, 8 per group, >2SD rise in temperature

CCOC(=O)C1=C[C@@H](OC(CC)CC)[C@H](NC(C)=O)[C@@H](N)C1 [Tamiflu ™, oseltamivir phosphate]
No. of Ferrets per pen with Fever (>2SD rise), mild febrile illness (influenza virus; four recipient ferrets per pen, pens a and b): 2
X^2 analysis of fever (2SD rise), p PBS versus treatment (influenza virus; in vivo): 0.106
X^2 analysis of fever (3SD rise), p PBS versus treatment (influenza virus; in vivo): 0.106
seroconversion of recipient ferrets (influenza virus; in vivo): did not seroconvert; also recorded: no seroconversion
Mean Difference (I−J), Weight Change separated into pens (influenza virus; (I) group PBS minus (J) treatment group, recipient ferrets, weight loss peak to trough as percentage of day 0 baseline weight): −1.880
weight loss, p PBS versus treatment (influenza virus; recipient ferrets): 0.003
% within Group No., Fever => 2SD rise from baseline: No (influenza virus; [2]): 50%
% within Group No., Fever => 2SD rise from baseline: yes (influenza virus; [2]): 50%
Count of ferrets, Fever => 2SD rise from baseline: No (influenza virus; [2]): 4
Count of ferrets, Fever => 2SD rise from baseline: yes (influenza virus; [2]): 4
Weight Change separated into pens, Mean (influenza virus; recipient ferrets, peak to trough as a percentage of the baseline weight on day 0): −.980%
No. of ferrets per group with Fever (>2SD rise), mild febrile illness (influenza virus; two pens per group): 4
No. of ferrets per group with Fever (>3SD rise) (influenza virus; two pens per group): 1

CCOC(=O)C1=C[C@@H](OC(CC)CC)[C@H](NC(C)=O)[C@@H](N)C1 [Tamiflu]
Mean Difference (I−J), Weight Change separated into pens (influenza virus; (I) treatment group minus (J) 25% horseradish): .161
Mean Difference (I−J), Weight Change separated into pens (influenza virus; (I) treatment group minus (J) 50% horseradish): .497
Mean Difference (I−J), Weight Change separated into pens (influenza virus; (I) treatment group minus (J) 100% Horseradish): .251
Mean Difference (I−J), Weight Change separated into pens (influenza virus; (I) treatment group minus (J) PBS, recipient ferrets): −1.880

O=C(O)CC(O)(CC(=O)O)C(=O)O [Citrate Buffer]
A/Moscow log reductions (Influenza A/Moscow/10/99; 1 minute incubation): 1.00 −log10 TCID50
Residual A/Moscow titer (Influenza A/Moscow/10/99; 1 minute incubation): 1.80 −log10 TCID50
A/Moscow log reductions (Influenza A/Moscow/10/99; 2 minute incubation): 1.00 −log10 TCID50
Residual A/Moscow titer (Influenza A/Moscow/10/99; 2 minute incubation): 1.80 −log10 TCID50
A/Moscow log reductions (Influenza A/Moscow/10/99; 5 minute incubation): 2.80 −log10 TCID50
Residual A/Moscow titer (Influenza A/Moscow/10/99; 5 minute incubation): 0.00 −log10 TCID50
B/Guangdong log reductions ([1]; 1 minute incubation): 1.80 −log10 TCID50
Residual B/Guangdong titer ([1]; 1 minute incubation): 0.00 −log10 TCID50
B/Guangdong log reductions ([1]; 2 minute incubation): 1.80 −log10 TCID50
Residual B/Guangdong titer ([1]; 2 minute incubation): 0.00 −log10 TCID50
B/Guangdong log reductions ([1]; 5 minute incubation): 1.80 −log10 TCID50
Residual B/Guangdong titer ([1]; 5 minute incubation): 0.00 −log10 TCID50
